≈ marks a conversion by molar mass, not a printed value.
Legend:
Assay type in all cases: functional
[1] = tested on: Escherichia coli; assay: Antibacterial activity against Escherichia coli CCARM 1924 after 20 hrs by twofold serial dilution technique; details: CCARM 1924, 20 h
[2] = tested on: Staphylococcus aureus; assay: Antibacterial activity against Staphylococcus aureus KCTC 503 after 20 hrs by twofold serial dilution technique; details: KCTC 503, 20 h
[3] = tested on: Escherichia coli; assay: Antibacterial activity against Escherichia coli CCARM 1356 after 20 hrs by twofold serial dilution technique; details: CCARM 1356, 20 h
[4] = tested on: Staphylococcus aureus; assay: Antibacterial activity against Staphylococcus aureus RN4220 after 20 hrs by twofold serial dilution technique; details: RN4220, 20 h
[5] = tested on: Staphylococcus aureus; assay: Antibacterial activity against quinolone-resistant Staphylococcus aureus CCARM 3519 after 20 hrs by twofold serial dilution technique; details: CCARM 3519, 20 h
[6] = tested on: Staphylococcus aureus; assay: Antibacterial activity against quinolone-resistant Staphylococcus aureus CCARM 3505 after 20 hrs by twofold serial dilution technique; details: CCARM 3505, 20 h
[7] = tested on: Staphylococcus aureus; assay: Antibacterial activity against methicillin-resistant Staphylococcus aureus CCARM 3167 after 20 hrs by twofold serial dilution technique; details: CCARM 3167, 20 h
[8] = tested on: Staphylococcus aureus; assay: Antibacterial activity against methicillin-resistant Staphylococcus aureus CCARM 3506 after 20 hrs by twofold serial dilution technique; details: CCARM 3506, 20 h

Compound | MIC [1] [µg/mL] | MIC [2] [µg/mL] | MIC [3] [µg/mL] | MIC [4] [µg/mL] | MIC [5] [µg/mL] | MIC [6] [µg/mL] | MIC [7] [µg/mL] | MIC [8] [µg/mL]
COc1ccc(-c2nn(-c3ccccc3)cc2/C=C2\SC(=S)N(CC(=O)O)C2=O)cc1 | > 64 | > 64 | > 64 | > 64 |  |  |  | 
O=C(O)CN1C(=O)/C(=C/c2cn(-c3ccccc3)nc2-c2ccc(Cl)cc2Cl)SC1=S | > 64 | 8 (≈ 16.3 µM) | > 64 | 8 (≈ 16.3 µM) | 8 (≈ 16.3 µM) | 8 (≈ 16.3 µM) | 4 (≈ 8.16 µM) | 4 (≈ 8.16 µM)
O=C(O)CN1C(=O)/C(=C/c2cn(-c3ccccc3)nc2-c2ccc(Cl)cc2)SC1=S | > 64 | 8 (≈ 17.5 µM) | > 64 | 8 (≈ 17.5 µM) | 16 (≈ 35.1 µM) | 8 (≈ 17.5 µM) | 8 (≈ 17.5 µM) | 8 (≈ 17.5 µM)
O=C(O)CN1C(=O)/C(=C/c2cn(-c3ccccc3)nc2-c2cccc(Cl)c2)SC1=S | > 64 | > 64 | > 64 | 16 (≈ 35.1 µM) | 64 (≈ 140 µM) | 16 (≈ 35.1 µM) | 16 (≈ 35.1 µM) | 32 (≈ 70.2 µM)
O=C(O)CN1C(=O)/C(=C/c2cn(-c3ccccc3)nc2-c2ccc(F)cc2)SC1=S | > 64 | > 64 | > 64 | > 64 |  |  |  | 
O=C(O)CCCCN1C(=O)/C(=C/c2cn(-c3ccccc3)nc2-c2ccc(Cl)cc2)SC1=S | > 64 | > 64 | > 64 | > 64 |  |  |  | 
O=C(O)CCCCN1C(=O)/C(=C/c2cn(-c3ccccc3)nc2-c2ccc(Cl)cc2Cl)SC1=S | > 64 | 4 (≈ 7.51 µM) | > 64 | 4 (≈ 7.51 µM) | 2 (≈ 3.76 µM) | 2 (≈ 3.76 µM) | 2 (≈ 3.76 µM) | 2 (≈ 3.76 µM)
COc1ccccc1-c1nn(-c2ccccc2)cc1/C=C1\SC(=S)N(CC(=O)O)C1=O | > 64 | > 64 | > 64 | > 64 |  |  |  | 
O=C(O)CN1C(=O)/C(=C/c2cn(-c3ccccc3)nc2-c2ccc([N+](=O)[O-])cc2)SC1=S | > 64 | > 64 | > 64 | > 64 |  |  |  | 
O=C(O)CCCN1C(=O)/C(=C/c2cn(-c3ccccc3)nc2-c2ccc(Cl)cc2Cl)SC1=S | > 64 | 4 (≈ 7.72 µM) | > 64 | 8 (≈ 15.4 µM) | 4 (≈ 7.72 µM) | 4 (≈ 7.72 µM) | 4 (≈ 7.72 µM) | 4 (≈ 7.72 µM)
O=C(O)CN1C(=O)/C(=C/c2cn(-c3ccccc3)nc2-c2cccc(Br)c2)SC1=S | > 64 | 32 (≈ 63.9 µM) | > 64 | 8 (≈ 16 µM) | 64 (≈ 128 µM) | 16 (≈ 32 µM) | 8 (≈ 16 µM) | 16 (≈ 32 µM)
COc1cccc(-c2nn(-c3ccccc3)cc2/C=C2\SC(=S)N(CC(=O)O)C2=O)c1 | > 64 | 64 (≈ 142 µM) | > 64 | 64 (≈ 142 µM) | 64 (≈ 142 µM) | 64 (≈ 142 µM) | 32 (≈ 70.9 µM) | 64 (≈ 142 µM)
CCn1cc(C(=O)O)c(=O)c2cc(F)c(N3CCNCC3)cc21 [NORFLOXACIN] | 16 (≈ 50.1 µM) | 2 (≈ 6.26 µM) | 16 (≈ 50.1 µM) | 2 (≈ 6.26 µM) | > 64 | > 64 | 8 (≈ 25.1 µM) | 4 (≈ 12.5 µM)
Cc1onc(-c2ccccc2)c1C(=O)N[C@@H]1C(=O)N2[C@@H]1SC(C)(C)[C@@H]2C(=O)O [OXACILLIN] | > 64 | 1 (≈ 2.49 µM) | > 64 | 1 (≈ 2.49 µM) | 1 (≈ 2.49 µM) | 1 (≈ 2.49 µM) | > 64 | > 64
O=C(O)CCCN1C(=O)/C(=C/c2cn(-c3ccccc3)nc2-c2ccc(Cl)cc2)SC1=S | > 64 | 4 (≈ 8.26 µM) | > 64 | 8 (≈ 16.5 µM) | 4 (≈ 8.26 µM) | 4 (≈ 8.26 µM) | 4 (≈ 8.26 µM) | 4 (≈ 8.26 µM)
Cc1ccc(-c2nn(-c3ccccc3)cc2/C=C2\SC(=S)N(CC(=O)O)C2=O)cc1 | > 64 | > 64 | > 64 | 16 (≈ 36.7 µM) | 64 (≈ 147 µM) | 16 (≈ 36.7 µM) | 16 (≈ 36.7 µM) | 16 (≈ 36.7 µM)
O=C(O)CN1C(=O)/C(=C/c2cn(-c3ccccc3)nc2-c2ccccc2Cl)SC1=S | > 64 | 32 (≈ 70.2 µM) | > 64 | 32 (≈ 70.2 µM) | 32 (≈ 70.2 µM) | 32 (≈ 70.2 µM) | 16 (≈ 35.1 µM) | 32 (≈ 70.2 µM)
O=C(O)CCN1C(=O)/C(=C/c2cn(-c3ccccc3)nc2-c2ccc(Cl)cc2Cl)SC1=S | > 64 | 4 (≈ 7.93 µM) | > 64 | 8 (≈ 15.9 µM) | 4 (≈ 7.93 µM) | 4 (≈ 7.93 µM) | 4 (≈ 7.93 µM) | 4 (≈ 7.93 µM)
O=C(O)CCN1C(=O)/C(=C/c2cn(-c3ccccc3)nc2-c2ccc(Cl)cc2)SC1=S | > 64 | 16 (≈ 34 µM) | > 64 | 8 (≈ 17 µM) | 8 (≈ 17 µM) | 4 (≈ 8.51 µM) | 4 (≈ 8.51 µM) | 4 (≈ 8.51 µM)
O=C(O)CCCCCN1C(=O)/C(=C/c2cn(-c3ccccc3)nc2-c2ccc(Cl)cc2Cl)SC1=S | > 64 | 8 (≈ 14.6 µM) | > 64 | 32 (≈ 58.6 µM) | 4 (≈ 7.32 µM) | 32 (≈ 58.6 µM) | 4 (≈ 7.32 µM) | 32 (≈ 58.6 µM)
O=C(O)CN1C(=O)/C(=C/c2cn(-c3ccccc3)nc2-c2ccccc2F)SC1=S | > 64 | 64 (≈ 146 µM) | > 64 | 64 (≈ 146 µM) | 64 (≈ 146 µM) | 64 (≈ 146 µM) | 64 (≈ 146 µM) | 64 (≈ 146 µM)
Cc1ccc(-c2nn(-c3ccccc3)cc2/C=C2\SC(=S)N(CC(=O)O)C2=O)c(C)c1 | > 64 | 16 (≈ 35.6 µM) | > 64 | 16 (≈ 35.6 µM) | 16 (≈ 35.6 µM) | 16 (≈ 35.6 µM) | 16 (≈ 35.6 µM) | 16 (≈ 35.6 µM)
O=C(O)CN1C(=O)/C(=C/c2cn(-c3ccccc3)nc2-c2ccc(Br)cc2)SC1=S | > 64 | 8 (≈ 16 µM) | > 64 | 8 (≈ 16 µM) | 8 (≈ 16 µM) | 8 (≈ 16 µM) | 8 (≈ 16 µM) | 8 (≈ 16 µM)
O=C(O)CCCCCN1C(=O)/C(=C/c2cn(-c3ccccc3)nc2-c2ccc(Cl)cc2)SC1=S | > 64 | > 64 | > 64 | > 64 |  |  |  | 
O=C(O)CN1C(=O)/C(=C/c2cn(-c3ccccc3)nc2-c2ccc3ccccc3c2)SC1=S | > 64 | > 64 | > 64 | > 64 |  |  |  | 
O=C(O)CN1C(=O)/C(=C/c2cn(-c3ccccc3)nc2-c2ccccc2)SC1=S | > 64 | 64 (≈ 152 µM) | > 64 | 64 (≈ 152 µM) | 32 (≈ 75.9 µM) | 32 (≈ 75.9 µM) | 32 (≈ 75.9 µM) | 32 (≈ 75.9 µM)

Source: ChEMBL document CHEMBL1932976, “Synthesis of novel 1,3-diaryl pyrazole derivatives bearing rhodanine-3-fatty acid moieties as potential antibacterial agents” (2012)
